In patent publication US8663616B2, “Enzymatic peracid generation for use in oral care products” (E I du Pont de Nemours and Company, priority 2010, dated 2014):
Ends that are not written are not given here. * marks the point of attachment. Biotin = O=C1N[C@H]2[C@H](CS[C@H]2CCCCC(=O)*)N1

Columns and labels:
[1] = target: T1, Wild Type (SEQ ID NO: 16) (Thermotoga maritima, UniProt Q9WXT2); experiment: Maximum peracetic acid from ester substrates with wild type perhydrolase (Example 14); type: biochemical; settings: 100 mM ester, 60 mM H2O2, 40 ppm enzyme, 95 mM phosphate pH 7.2, 37° C.
T1 construct: made in house; host or cells: E. coli
T1 sequence (Q9WXT2 1-325): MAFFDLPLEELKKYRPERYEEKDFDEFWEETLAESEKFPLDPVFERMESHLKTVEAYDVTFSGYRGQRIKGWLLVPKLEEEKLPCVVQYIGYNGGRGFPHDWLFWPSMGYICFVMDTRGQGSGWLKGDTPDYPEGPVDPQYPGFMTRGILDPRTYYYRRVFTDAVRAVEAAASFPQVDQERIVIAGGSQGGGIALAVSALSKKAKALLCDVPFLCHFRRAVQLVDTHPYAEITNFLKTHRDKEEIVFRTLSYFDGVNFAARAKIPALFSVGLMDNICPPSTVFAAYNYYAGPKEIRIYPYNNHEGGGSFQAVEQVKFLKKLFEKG
Protocol: (§1) To test various enzymes against an ester substrate, it was convenient to run up to 4 reactions simultaneously by staggering the beginning of each individual reaction by 0.5-1 min. Each individual reaction was performed in a glass vessel (height: 76 mm; o.d.: 33 mm; i.d.: 24 mm) equipped with a magnetic stirring bar. Four reaction vessels were banded together and kept at constant temperature in a jacketed one-liter, stainless steel, tempering beaker (KGW IsoTherm, # TSS-G 1000W) with circulating water controlled by a Thermo NesLab recirculation bath (Model # RTE-7 Digital One). Buffer (6 mL, 100 mM sodium phosphate buffer, pH 7.2) was added to each reaction vessel and allowed to equilibrate to 37° C. The ester substrate of interest was added to achieve 100 mM concentration. […] To follow the production of peracetic acid, 80 μL samples from each reaction were removed at specific intervals from 1 to 15 minutes. The sample was immediately quenched in a microfuge filter tube (NanoSep 30K VWR cat #82031-354) containing a volume and concentration of phosphoric acid solution that was sufficient to stop the enzymatic reaction (by lowering the pH between 2 and 3) and to dilute the sample for convenient HPLC analyses. The acid-quenched samples were centrifuged for 5 minutes to remove any particulates.

C277S (SEQ ID NO: 424) = target: T2, C277S (SEQ ID NO: 424) (Thermotoga maritima, UniProt Q9WXT2, C277S); type: biochemical; settings: 100 mM ester, 60 mM H2O2, 40 ppm enzyme, 95 mM phosphate pH 7.2, 37° C.
T2 construct: made in house; host or cells: E. coli
Protocol: as §1

[2] = Bleaching of coffee-tea stained bovine enamel with EZ-1 and various ester substrates (Example 15); parameters: Whiteness Index Treatment 0 / Whiteness Index Treatment 1 / Whiteness Index Treatment 2 / Whiteness Index Treatment 3 / ΔWI: scale not given here; settings: for Whiteness Index Treatment 1: after 1 x 30 min treatment; for Whiteness Index Treatment 2: after 2 x 30 min treatments; for Whiteness Index Treatment 3: after 3 x 30 min treatments; for Whiteness Index Treatment 0: before treatment, 40 ppm EZ-1, 100 mM substrate, H2O2 100 mM (TA), 360 mM (PGDA, SOC), 60 mM (GPA), pH 7.2, control 9% H2O2 pH 5.3 without enzyme; for change in whiteness index (in words): enzymatically generated peracetic acid with EZ-1, each successive treatment; for ΔWI: treatment 0 to treatment 3
Protocol: The optimal conditions used for the generation of peracetic acid with each substrate were derived from the studies in Example 14 and are listed below as follows:
Bovine enamel incisors were prepared as indicated in Example 1. The stained enamel blocks were placed in a 24 well plate with the dentin side facing down and hydrated overnight in phosphate buffer, pH 7.2. Prior to treatment, a color measurement of each tooth was performed using a Konica-Minolta 2600d spectrophotometer and whiteness index was calculated as specified in Example 1.
Each enzyme solution was prepared in a 1.5-mL microfuge tube (Eppendorf, #2243102-1) and 1 mL of the solution was immediately transferred to the 24 well plate containing the pre-hydrated teeth. The control samples consisted of 100 mM phosphate buffer, pH 7.2 and 9% H2O2 in 100 mM citrate/phosphate buffer, pH 5.3. The teeth were incubated at room temperature for 30 minutes, removed, rinsed with 100 mM phosphate, pH 7.2 and a color measurement was taken. The teeth were placed back into the 24 well plate at which time fresh enzyme solutions were prepared and added to each well. This process was repeated for a total of 3 whitening treatments; 30 min per treatment (Table 22).

C277T (SEQ ID NO: 437) = target: T3, C277T (SEQ ID NO: 437) (Thermotoga maritima, UniProt Q9WXT2, C277T); type: biochemical; settings: 100 mM ester, 60 mM H2O2, 40 ppm enzyme, 95 mM phosphate pH 7.2, 37° C.
T3 construct: made in house; host or cells: E. coli
Protocol: as §1

[3] = target: T4, C277T/R296P (SEQ ID NO: 476) (Thermotoga maritima, UniProt Q9WXT2, C277T/R296P); type: biochemical; settings: 100 mM ester, 60 mM H2O2, 40 ppm enzyme, 95 mM phosphate pH 7.2, 37° C.
T4 construct: made in house; host or cells: E. coli
Protocol: as §1

[4] = 20 μM biotin-labelled peptide, 30 min 37° C.; streptavidin-HRP, QuantaBlu; three replicate enamel substrates; no peptide 494.2
Protocol: A total of 11 synthetic peptides were manufactured using sequences obtained from Table 3. Peptides were obtained from SynBioSci Corp. (Livermore, Calif.) with biotin labeled lysine at the C-terminus.
Enamel substrates were prepared as described in Example 2. Each substrate was incubated for 1 h at room temperature (˜22° C.) with 1 mL of blocking buffer, consisting of 1 mg/mL BSA in PBST (Pierce BUPH™ #28372 with 0.1% TWEEN® 20). The blocking buffer was removed by aspirating the liquid out of each well. The tube was rinsed 2 times with wash buffer consisting of PBST. The wells were filled with 500 μL of 20 μM peptide solution which was prepared by diluting in blocking buffer. The samples were incubated for 30 min with slow shaking at 37° C. The non-binding peptide was removed by washing 6 times with PBST. Then, 500 μL of horseradish peroxidase/streptavidin conjugate (Pierce #22127), diluted 1:1000 in PBST, was added and incubated for 1 h at room temperature (˜22° C.). The conjugate solution was removed and the enamel blocks were washed 4 times with PEST.
Each enamel substrate was removed from the well and washed again in a 15-mL test tube with 10 mL of PBST. Each enamel substrate was then mounted in a clean well plate with only the enamel surface exposed. 200 μL of a QUANTABLU™ Substrate Solution (Thermo-Fisher, Rockford, Ill.; #1856187) was added directly to each enamel block. The solution was incubated for 20 min at room temperature. 200 μL of QUANTABLU™ Stop Solution (Thermo Fisher) was added. After mixing, 200 μL of solution was transferred to a clean 96-well black microcentrifuge plate. The fluorescence of the plate was measured with 325 nm excitation and 420 nm emission with no cutoff wavelength using a microplate spectrophotometer (Molecular Devices, Sunnyvale, Calif.). The analysis of the 11 pellicle/enamel binding candidates was compared to a known binding peptide, DenP03. Each sequence was tested with three replicate enamel substrates.

T4 sequence (Q9WXT2 whole entry C277T/R296P): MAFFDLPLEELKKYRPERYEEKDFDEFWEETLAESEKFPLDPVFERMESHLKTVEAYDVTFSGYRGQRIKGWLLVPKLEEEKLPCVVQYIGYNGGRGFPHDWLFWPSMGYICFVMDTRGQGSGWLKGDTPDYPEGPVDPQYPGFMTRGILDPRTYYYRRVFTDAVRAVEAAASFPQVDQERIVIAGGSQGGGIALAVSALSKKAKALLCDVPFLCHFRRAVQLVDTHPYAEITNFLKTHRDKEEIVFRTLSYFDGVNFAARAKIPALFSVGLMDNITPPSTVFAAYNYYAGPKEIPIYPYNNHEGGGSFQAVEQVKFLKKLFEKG
T3 sequence (Q9WXT2 whole entry C277T): as the sequence (Q9WXT2 whole entry C277T/R296P) above, with P296R counted along it
T2 sequence (Q9WXT2 whole entry C277S): as the sequence (Q9WXT2 whole entry C277T/R296P) above, with T277S, P296R counted along it

| Compound | Maximum Peracetic Acid (PAA) (ppm), Wild Type (SEQ ID NO: 16) [1] | Maximum Peracetic Acid (PAA) (ppm), C277S (SEQ ID NO: 424) (C277S (SEQ ID NO: 424)) | Maximum Peracetic Acid (PAA) (ppm), C277T (SEQ ID NO: 437) (C277T (SEQ ID NO: 437)) | Maximum Peracetic Acid (PAA) (ppm), C277T/R296P (SEQ ID NO: 476) [3] | Avg Fluorescence 325/420 [4] | further results |
| --- | --- | --- | --- | --- | --- | --- |
| CC(=O)OCC(C)OC(C)=O (stereo not drawn) [Propylene glycol diacetate] | 780 ppm | 1128 ppm | 1245 ppm | 1202 ppm | – | Whiteness Index Treatment 1 [2]: −108.0; Whiteness Index Treatment 2 [2]: −80.9; Whiteness Index Treatment 3 [2]: −80.1; Whiteness Index Treatment 0 [2]: −181.4; change in whiteness index (in words) [2]: significant change in whiteness index; ΔWI [2]: 101.3 |
| CC(=O)OC[C@H]1O[C@@](COC(C)=O)(O[C@H]2O[C@H](COC(C)=O)[C@@H](OC(C)=O)[C@H](OC(C)=O)[C@H]2OC(C)=O)[C@@H](OC(C)=O)[C@@H]1OC(C)=O [Sucrose octaacetate] | 304 ppm | 215 ppm | 493 ppm | 501 ppm | – | Whiteness Index Treatment 1 [2]: −135.2; Whiteness Index Treatment 2 [2]: −135.9; Whiteness Index Treatment 3 [2]: −128.8; Whiteness Index Treatment 0 [2]: −172.8; change in whiteness index (in words) [2]: significant change in whiteness index; ΔWI [2]: 44.0 |
| CC(=O)OCC(COC(C)=O)OC(C)=O [Triacetin] | 937 ppm | 1977 ppm | 2311 ppm | 2291 ppm | – | Whiteness Index Treatment 1 [2]: −108.7; Whiteness Index Treatment 2 [2]: −86.7; Whiteness Index Treatment 3 [2]: −86.1; Whiteness Index Treatment 0 [2]: −189.9; change in whiteness index (in words) [2]: significant change in whiteness index; ΔWI [2]: 103.8 |
| CC(=O)OC[C@H]1O[C@H](OC(C)=O)[C@H](OC(C)=O)[C@@H](OC(C)=O)[C@@H]1OC(C)=O [α-D-glucose pentaacetate] | 1188 ppm | 2091 ppm | 2542 ppm | 1678 ppm | – | Whiteness Index Treatment 1 [2]: −128.7; Whiteness Index Treatment 2 [2]: −105.3; Whiteness Index Treatment 3 [2]: −95.9; Whiteness Index Treatment 0 [2]: −225.2; change in whiteness index (in words) [2]: significant change in whiteness index; ΔWI [2]: 129.3 |
| CC(=O)OC[C@H]1O[C@@H](OC(C)=O)[C@H](OC(C)=O)[C@@H](OC(C)=O)[C@@H]1OC(C)=O [β-D-glucose pentaacetate] | 1158 ppm | 2178 ppm | 2531 ppm | 1716 ppm | – | – |
| CC(=O)OC[C@H]1O[C@@H](OC(C)=O)[C@H](OC(C)=O)[C@H]1OC(C)=O [β-D-xylofuranose tetraacetate] | 2384 ppm | 3354 ppm | 3481 ppm | 3158 ppm | – | – |
| ANSGFPIWLQKYPWSEVQQEK (Biotin) [DenP309] | – | – | – | – | 1729.5 | – |
| ATPSQHRYGLMQNHAPNGIEK(Biotin) [DenP311] | – | – | – | – | 795.3 | – |
| DLGTFPNRTLKMAAHK(Biotin) [DenP304] | – | – | – | – | 642.8 | – |
| DTIHPNKMKSPSSPLK (Biotin) [DenP305] | – | – | – | – | 581.2 | – |
| GMGSEVLSQYPQAPVGK(Biotin) [DenP312] | – | – | – | – | 2301.0 | – |
| GSNNHLPSTVPRLTVK(Biotin) [DenP306] | – | – | – | – | 1300.0 | – |
| HDPYTMKSALRQSTSK(Biotin) [DenP303] | – | – | – | – | 948.6 | – |
| QAAQVHMMQHSRPTTK (Biotin) [DenP302] | – | – | – | – | 608.6 | – |
| SNATMYNIQSHSHHQK (Biotin) [DenP301] | – | – | – | – | 1098.4 | – |
| SNPIPNFAHDLRHSKYNSK (Biotin) [DenP307] | – | – | – | – | 861.6 | – |
| TKPPRTPTANTSRPHHNFK(Biotin) [DenP308] | – | – | – | – | 12302.6 | – |
| TTYHYKNIYQESYQQRNPAVK (Biotin) [DenP03, reference compound] | – | – | – | – | 3448.3 | – |
